The values below come from PubChem BioAssay (NCI).

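The compound was tested at five concentrations on cells cultured in 96-well plates, with a 48-hour exposure period. GI50 marks 50% less growth. Definition used: TGI = concentration required for complete inhibition of growth.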 A value given as a limit tells only on which side of the number the result lay.

Some test systems named below: RXF 393 renal; OVCAR-8 ovarian; SF-268 CNS; OVCAR-4 ovarian; NCI-H522 lung; COLO 205 colon; K-562 leukemia; SK-MEL-5 melanoma; KM12 colon; LOX IMVI melanoma.
Holding throughout (test): NCI-60 cell line screen, 48 h

For `CC(=O)CC(=O)NC=O`, the TGI with RXF 393 renal, with OVCAR-8 ovarian, in the experiment on SF-268 CNS, in the experiment on OVCAR-4 ovarian, in the experiment with NCI-H522 lung and in the experiment with COLO 205 colon was over 100 µM each time. The TGI with K-562 leukemia, with SK-MEL-5 melanoma and in the experiment on KM12 colon was over 100 µM each time.

For the compound `CC1(C)OC2C(CO)OC(n3ccc(N)nc3=O)C2O1` (stereo not drawn), the TGI with RXF 393 renal, in the experiment on LOX IMVI melanoma, with OVCAR-8 ovarian, in the experiment on SF-268 CNS, with NCI-H522 lung and in the experiment on COLO 205 colon was over 100 µM each time. Also, the TGI in the experiment with K-562 leukemia, in the experiment with SK-MEL-5 melanoma and with KM12 colon was over 100 µM throughout.

Consider `O=c1[nH]c(F)nc2c1ncn2C1OC(CO)C(O)C1O` (stereo not drawn), for which the GI50 in the experiment on RXF 393 renal, with LOX IMVI melanoma, in the experiment with OVCAR-8 ovarian, with SF-268 CNS, with COLO 205 colon and in the experiment on K-562 leukemia was over 100 µM in each case. Further, the GI50 in the experiment with SK-MEL-5 melanoma and in the experiment on KM12 colon was over 100 µM each time. The TGI in the experiment on RXF 393 renal, with LOX IMVI melanoma, with OVCAR-8 ovarian, in the experiment with SF-268 CNS, with COLO 205 colon and in the experiment on K-562 leukemia was over 100 µM in each case. The TGI in the experiment with SK-MEL-5 melanoma and in the experiment with KM12 colon was over 100 µM in each case.

As for `O=C([O-])CCc1ccccc1.O=C([O-])CCc1ccccc1.O=C([O-])CCc1ccccc1.O=C([O-])CCc1ccccc1.[Mo+2].[Mo+2]`, the GI50 with RXF 393 renal, in the experiment on LOX IMVI melanoma, with OVCAR-8 ovarian, in the experiment on SF-268 CNS, in the experiment with OVCAR-4 ovarian and in the experiment with COLO 205 colon was over 100 µM throughout. The GI50 in the experiment on K-562 leukemia, with SK-MEL-5 melanoma and with KM12 colon was over 100 µM throughout. Besides, the TGI with RXF 393 renal, in the experiment with LOX IMVI melanoma, in the experiment on OVCAR-8 ovarian, in the experiment with SF-268 CNS, with OVCAR-4 ovarian and in the experiment on COLO 205 colon was over 100 µM in each case. Moreover, the TGI in the experiment with K-562 leukemia, with SK-MEL-5 melanoma and with KM12 colon was over 100 µM each time.

`C=C1c2[nH]c3ccccc3c2CC(C(=O)O)N1C(O)c1ccc(S(=O)(=O)O)cc1` (stereo not drawn): the TGI with RXF 393 renal, in the experiment with LOX IMVI melanoma, in the experiment on OVCAR-8 ovarian, in the experiment on SF-268 CNS, with OVCAR-4 ovarian and with NCI-H522 lung was over 100 µM in each case. Also, the TGI with K-562 leukemia, in the experiment with SK-MEL-5 melanoma and with KM12 colon was over 100 µM throughout.

For the compound `CC(C)OCc1cc(CN2CCN(c3cccc(Cl)c3)CC2)c(O)c2ncccc12`, the GI50 was 2.87 µM in the experiment on RXF 393 renal; 0.416 µM in the experiment with LOX IMVI melanoma; 0.367 µM in the experiment with OVCAR-8 ovarian; 0.629 µM with SF-268 CNS; 0.3 µM with NCI-H522 lung; 5.94 µM in the experiment on COLO 205 colon. Besides, the GI50 with K-562 leukemia was 0.349 µM; with SK-MEL-5 melanoma it was 0.445 µM; in the experiment with KM12 colon, 0.574 µM. For the same compound, the TGI in the experiment with RXF 393 renal was 20.2 µM; in the experiment with LOX IMVI melanoma, 10.2 µM; with OVCAR-8 ovarian, 11.6 µM; in the experiment on SF-268 CNS it was 14.7 µM; in the experiment on NCI-H522 lung, 2.26 µM; in the experiment on COLO 205 colon, 19.2 µM. Moreover, the TGI with K-562 leukemia turned out to be 10.3 µM; in the experiment on SK-MEL-5 melanoma, 2.1 µM; with KM12 colon, 13.2 µM.

Take `O=C(O)c1cn(C2CC2)c2cc(N3CCN(C(=O)Nc4nc(-c5ccc(Br)cc5)cs4)CC3)c(F)cc2c1=O`: the GI50 is 3.9 µM with RXF 393 renal; 1.09 µM in the experiment with LOX IMVI melanoma; 3.72 µM in the experiment on OVCAR-8 ovarian; 1.23 µM in the experiment with SF-268 CNS; 2.41 µM in the experiment with NCI-H522 lung; 1.51 µM in the experiment on K-562 leukemia. Moreover, in the experiment with KM12 colon, the GI50 is 1.93 µM. Moreover, the TGI in the experiment with RXF 393 renal, in the experiment on LOX IMVI melanoma, with OVCAR-8 ovarian, in the experiment on SF-268 CNS, in the experiment with NCI-H522 lung and with K-562 leukemia was over 100 µM each time. This compound returned a TGI in the experiment with KM12 colon of over 100 µM.

For `C=CCC12CCC(=O)[C@@]1(C)CC=C(O)C2=O` (stereo partly drawn), the TGI with RXF 393 renal, with LOX IMVI melanoma, in the experiment with OVCAR-8 ovarian, in the experiment on SF-268 CNS, in the experiment on OVCAR-4 ovarian and in the experiment with NCI-H522 lung was over 100 µM throughout. Moreover, the TGI in the experiment with COLO 205 colon, in the experiment with SK-MEL-5 melanoma and in the experiment with KM12 colon was over 100 µM each time.

For `CCN(CC)CC(O)COc1c(Br)c(Br)c(Br)c2c1OC(C)(C)C2` (stereo not drawn), the GI50 with LOX IMVI melanoma was 2.08 µM; in the experiment on OVCAR-8 ovarian, 11.4 µM; with SF-268 CNS, 8.35 µM; with OVCAR-4 ovarian, 6.56 µM; in the experiment on NCI-H522 lung, 3.42 µM; in the experiment on COLO 205 colon, 1.98 µM. In addition, the GI50 was 1.73 µM with K-562 leukemia, 1.82 µM with SK-MEL-5 melanoma and 3.69 µM in the experiment with KM12 colon. For the same compound, the TGI with LOX IMVI melanoma is 3.67 µM; in the experiment on OVCAR-8 ovarian, 36.7 µM; with SF-268 CNS it was 26.3 µM; in the experiment on OVCAR-4 ovarian, 22.8 µM; in the experiment with NCI-H522 lung, 14.4 µM; in the experiment with COLO 205 colon, 5.14 µM. The TGI in the experiment with K-562 leukemia came to 3.58 µM; in the experiment with SK-MEL-5 melanoma, 3.24 µM; in the experiment on KM12 colon, 13.8 µM.

On to `O=c1[nH]c2ccccc2n2cc3ccccc3c12`, for which the GI50 in the experiment with RXF 393 renal is 6.26 µM; with LOX IMVI melanoma, 3 µM; in the experiment on OVCAR-8 ovarian, 5.28 µM; in the experiment with SF-268 CNS, 21.6 µM; in the experiment on OVCAR-4 ovarian it was 7.2 µM; in the experiment on NCI-H522 lung, 13.7 µM. Besides, the GI50 in the experiment with COLO 205 colon was 4.52 µM; in the experiment with SK-MEL-5 melanoma it was 1.89 µM; with KM12 colon it was 19.2 µM. The TGI in the experiment on RXF 393 renal was 29.9 µM; in the experiment with LOX IMVI melanoma, 12 µM; with OVCAR-8 ovarian it was 33.3 µM; in the experiment on SF-268 CNS, 87.1 µM; with OVCAR-4 ovarian it was 89.7 µM; in the experiment on NCI-H522 lung, 32.3 µM. Besides, the figures for the TGI with COLO 205 colon, in the experiment on SK-MEL-5 melanoma and in the experiment with KM12 colon were over 100 µM, 14.9 µM and 40 µM, respectively.
